Assay results taken from ChEMBL document CHEMBL1201862, “PubChem BioAssay data set” (2004).
Each block holds one molecule with its values, some of them ahead of it. Active and inactive are the calls of the source.

Columns and labels:
[1] = molecular target: Cytochrome P450 2D6 (Homo sapiens, UniProt P10635); assay: qHTS Assay for Inhibitors and Substrates of Cytochrome P450 2D6. [Related pubchem assays: 410 ]; assay type: ADME; conditions: read-out: Potency
[2] = molecular target: Cytochrome P450 3A4 (Homo sapiens, UniProt P08684); conditions: Potency;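 note: confirmatory qHTS run detecting inhibitors and substrates of CYP3A4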
Cytochrome P450 3A4, sequence (P08684 whole entry): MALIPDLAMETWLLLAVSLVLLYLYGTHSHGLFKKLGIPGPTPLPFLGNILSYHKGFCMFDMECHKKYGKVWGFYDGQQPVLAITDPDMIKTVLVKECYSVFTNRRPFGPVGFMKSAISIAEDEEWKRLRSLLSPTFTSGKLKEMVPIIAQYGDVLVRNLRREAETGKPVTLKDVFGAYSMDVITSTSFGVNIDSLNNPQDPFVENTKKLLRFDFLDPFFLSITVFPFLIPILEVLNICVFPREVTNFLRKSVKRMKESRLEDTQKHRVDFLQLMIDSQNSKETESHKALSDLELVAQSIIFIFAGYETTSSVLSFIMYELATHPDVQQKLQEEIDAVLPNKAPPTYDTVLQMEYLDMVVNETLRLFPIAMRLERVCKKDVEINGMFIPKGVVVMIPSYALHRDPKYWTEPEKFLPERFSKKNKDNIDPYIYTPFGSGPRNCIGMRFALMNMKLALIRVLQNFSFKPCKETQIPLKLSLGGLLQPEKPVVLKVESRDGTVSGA

[3] = molecular target: Cytochrome P450 2C9 (Homo sapiens, UniProt P11712); conditions: Potency
Cytochrome P450 2C9, sequence (P11712 whole entry): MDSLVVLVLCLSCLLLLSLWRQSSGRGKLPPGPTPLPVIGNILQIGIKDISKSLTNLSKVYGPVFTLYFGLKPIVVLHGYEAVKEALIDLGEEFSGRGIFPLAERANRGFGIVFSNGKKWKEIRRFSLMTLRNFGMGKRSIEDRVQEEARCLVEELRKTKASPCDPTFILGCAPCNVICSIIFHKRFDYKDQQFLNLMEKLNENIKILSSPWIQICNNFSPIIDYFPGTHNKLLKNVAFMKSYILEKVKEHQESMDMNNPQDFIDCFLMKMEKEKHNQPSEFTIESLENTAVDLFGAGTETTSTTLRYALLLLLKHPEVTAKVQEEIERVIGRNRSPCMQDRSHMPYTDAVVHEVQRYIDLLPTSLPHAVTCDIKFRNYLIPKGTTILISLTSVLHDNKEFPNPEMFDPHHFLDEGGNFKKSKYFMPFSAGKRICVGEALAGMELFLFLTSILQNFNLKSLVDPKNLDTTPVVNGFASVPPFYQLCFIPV

[4] = molecular target: T1, Leucine aminopeptidase (Plasmodium falciparum 3D7, UniProt Q8IL11); assay: P. falciparum M17LAP inhibitors, primary screen, biochemical, fluorogenic H-Leu-NHMec substrate, 1536-well (AID 1619); assay type: functional
T1 sequence (Q8IL11 whole entry): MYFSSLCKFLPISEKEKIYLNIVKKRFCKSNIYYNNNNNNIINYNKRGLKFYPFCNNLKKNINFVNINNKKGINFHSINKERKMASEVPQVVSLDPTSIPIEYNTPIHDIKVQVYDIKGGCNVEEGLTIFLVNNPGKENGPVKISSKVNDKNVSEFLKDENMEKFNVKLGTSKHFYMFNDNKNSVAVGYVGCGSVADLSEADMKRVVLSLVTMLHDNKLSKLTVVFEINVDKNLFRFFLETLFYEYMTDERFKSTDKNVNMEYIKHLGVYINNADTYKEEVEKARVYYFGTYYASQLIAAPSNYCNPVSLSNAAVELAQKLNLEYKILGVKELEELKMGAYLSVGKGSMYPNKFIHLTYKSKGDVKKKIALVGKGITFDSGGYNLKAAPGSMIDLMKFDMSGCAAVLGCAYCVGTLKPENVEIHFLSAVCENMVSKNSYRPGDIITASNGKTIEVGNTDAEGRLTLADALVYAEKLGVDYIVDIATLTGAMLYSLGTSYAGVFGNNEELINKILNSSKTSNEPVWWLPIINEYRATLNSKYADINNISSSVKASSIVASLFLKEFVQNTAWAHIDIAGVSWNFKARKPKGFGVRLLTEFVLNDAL

[5] = Counterscreen for IDE inhibitors: Luminescence-based cell-based high throughput dose response assay to identify compounds that are cytotoxic to HEK cells. [Related pubchem assays: 434962 (Primary screen (IDE inhibitors in singlicate)), 449730 (Counterscreen (Cytotoxicity in triplicate)), 435028 (Confirmation (IDE inhibitors in triplicate)) …; assay type: functional; conditions: HEK293
[6] = molecular target: T2, Insulin-degrading enzyme (Homo sapiens, UniProt P14735); assay: Dose Response: Fluorescence polarization-based cell-based high throughput dose response assay for inhibitors of insulin-degrading enzyme (IDE). [Related pubchem assays: 434962 (Primary screen (IDE inhibitors in singlicate)), 449730 (Counterscreen (Cytotoxicity in triplicate)), 435028 (Confirmation (IDE inhibitors in triplicate)), 434984 (Summary …; assay type: functional
T2 sequence (P14735 whole entry): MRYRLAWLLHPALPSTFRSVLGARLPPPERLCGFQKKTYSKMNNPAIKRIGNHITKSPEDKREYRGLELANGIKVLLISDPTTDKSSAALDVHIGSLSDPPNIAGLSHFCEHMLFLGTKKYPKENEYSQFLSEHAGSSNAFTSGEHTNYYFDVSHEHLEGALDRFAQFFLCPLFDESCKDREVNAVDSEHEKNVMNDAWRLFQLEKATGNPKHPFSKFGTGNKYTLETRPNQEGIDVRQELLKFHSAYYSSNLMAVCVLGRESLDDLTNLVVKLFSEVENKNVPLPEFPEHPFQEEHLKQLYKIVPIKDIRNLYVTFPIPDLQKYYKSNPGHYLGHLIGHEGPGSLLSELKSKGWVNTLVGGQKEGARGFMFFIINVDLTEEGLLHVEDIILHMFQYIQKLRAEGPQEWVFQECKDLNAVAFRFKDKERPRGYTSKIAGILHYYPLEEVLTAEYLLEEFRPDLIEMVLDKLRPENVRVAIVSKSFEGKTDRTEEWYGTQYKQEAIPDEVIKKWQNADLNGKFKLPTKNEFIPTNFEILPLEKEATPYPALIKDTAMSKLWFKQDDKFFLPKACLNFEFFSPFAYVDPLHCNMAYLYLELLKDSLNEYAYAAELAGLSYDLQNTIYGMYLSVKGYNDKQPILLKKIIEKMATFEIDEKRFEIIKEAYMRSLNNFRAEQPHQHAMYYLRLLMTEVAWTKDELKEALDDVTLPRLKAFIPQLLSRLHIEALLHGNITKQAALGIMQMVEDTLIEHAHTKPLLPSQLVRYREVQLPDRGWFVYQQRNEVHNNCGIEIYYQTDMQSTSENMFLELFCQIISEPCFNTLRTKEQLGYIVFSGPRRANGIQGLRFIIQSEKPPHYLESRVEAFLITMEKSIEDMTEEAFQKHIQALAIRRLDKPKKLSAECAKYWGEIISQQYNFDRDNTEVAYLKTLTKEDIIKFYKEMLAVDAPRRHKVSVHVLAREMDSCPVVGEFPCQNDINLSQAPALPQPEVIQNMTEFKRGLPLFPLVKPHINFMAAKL

[7] = mitochondrial function rescue without frataxin homolog – Friedreich's ataxia, plus single-dose screen, dose response (AID 1465); assay type: functional;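 note: yeast depleted of Yfh1p frataxin homolog grown on glycerol needing respiration; WST-1 tetrazolium dye reduction as measure of cellular dehydrogenase metabolic activity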
[8] = molecular target: Trypsin (Sus scrofa, UniProt P00761); assay: trypsin protease activity blockade – biochemical, quenched peptide fluorescence, cherry-pick, selectivity assay for Rce1 protease inhibitor project, dose response (AID 488789)
Trypsin, sequence (P00761 whole entry): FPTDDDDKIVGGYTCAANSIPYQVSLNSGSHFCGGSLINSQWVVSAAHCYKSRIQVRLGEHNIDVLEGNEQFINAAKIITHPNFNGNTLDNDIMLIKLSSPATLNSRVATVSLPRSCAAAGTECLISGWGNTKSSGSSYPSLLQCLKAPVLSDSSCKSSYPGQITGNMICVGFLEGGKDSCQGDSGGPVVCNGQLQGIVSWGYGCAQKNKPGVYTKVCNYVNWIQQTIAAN

[9] = molecular target: CAAX prenyl protease 2 (Saccharomyces cerevisiae S288c, UniProt Q03530); assay type: biochemical
CAAX prenyl protease 2 (Saccharomyces cerevisiae S288c, UniProt Q03530), sequence (Q03530 whole entry): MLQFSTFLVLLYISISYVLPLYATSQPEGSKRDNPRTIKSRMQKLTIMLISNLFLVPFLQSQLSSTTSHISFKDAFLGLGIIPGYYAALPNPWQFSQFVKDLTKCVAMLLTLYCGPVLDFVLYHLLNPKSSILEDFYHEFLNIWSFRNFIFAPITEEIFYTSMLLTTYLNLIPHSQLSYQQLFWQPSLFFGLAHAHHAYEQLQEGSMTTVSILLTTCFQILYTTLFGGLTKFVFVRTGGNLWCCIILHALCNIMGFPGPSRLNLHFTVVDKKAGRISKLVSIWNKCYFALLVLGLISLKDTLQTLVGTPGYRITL

[10] = molecular target: T3, CAAX prenyl protease 2 (Homo sapiens, UniProt Q9Y256); assay: inhibition of Ras-converting CAAX protease Rce1 – biochemical, yeast membranes, quenched-peptide fluorescence, cherry-pick, dose response (AID 588849)
T3 sequence (Q9Y256 whole entry): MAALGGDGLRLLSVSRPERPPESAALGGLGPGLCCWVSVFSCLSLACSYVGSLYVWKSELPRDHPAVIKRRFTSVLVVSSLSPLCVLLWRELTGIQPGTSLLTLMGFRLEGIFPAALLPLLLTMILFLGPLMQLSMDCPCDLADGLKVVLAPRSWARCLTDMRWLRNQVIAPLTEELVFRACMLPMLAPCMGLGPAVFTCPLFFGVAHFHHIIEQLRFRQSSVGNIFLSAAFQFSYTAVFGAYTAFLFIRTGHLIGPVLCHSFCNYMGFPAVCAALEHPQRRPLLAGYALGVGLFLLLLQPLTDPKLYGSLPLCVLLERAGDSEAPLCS

[11] = molecular target: Photoreceptor-specific nuclear receptor (Homo sapiens, UniProt Q9Y5X4); assay type: functional;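 note: potency for compounds that break the NR2E3 corepressor complex and count as activators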
[12] = molecular target: Peroxisome proliferator-activated receptor gamma/Nuclear receptor coactivator 1 (Homo sapiens, UniProt P37231); assay: (§1) TR-FRET dose response biochemical High Throughput Screening assay for agonists of the steroid receptor coactivator 1 (SRC-1) recruitment by the peroxisome proliferator-activated receptor gamma (PPAR gamma): non-selective agonists. [Related pubchem assays (depositor defined):AID1300, AID1808, AID504735, AID631]; assay type: protein assay
[13] = molecular target: Peroxisome proliferator-activated receptor gamma/Nuclear receptor coactivator 3 (Homo sapiens, UniProt P37231); assay: as §1, with “3 (SRC-3)” for “1 (SRC-1)”, “assays: 1301 (Confirmation screen.), 1048 (Primary screen.)]” for “assays (depositor defined):AID1300, AID1808, AID504735, AID631]”; assay type: functional
[14] = molecular target: Peroxisome proliferator-activated receptor gamma/Nuclear receptor coactivator 2 (Homo sapiens, UniProt P37231); assay: TR-FRET dose response biochemical High Throughput Screening assay for agonists of the steroid receptor coactivator 2 (SRC-2) recruitment by the peroxisome proliferator-activated receptor gamma (PPAR gamma): non-selective agonists. [Related pubchem assays: 1297, 1032 ]; assay type: functional
[15] = molecular target: Peroxisome proliferator-activated receptor gamma/Nuclear receptor corepressor 2 (Homo sapiens, UniProt P37231+Q9Y618); assay type: functional
[16] = molecular target: T4, Voltage-gated N-type calcium channel alpha-1B subunit/Amyloid beta A4 precursor protein-binding family A member 1 (Homo sapiens, UniProt Q00975+Q02410); assay type: protein assay
T4 sequence (Q00975 whole entry): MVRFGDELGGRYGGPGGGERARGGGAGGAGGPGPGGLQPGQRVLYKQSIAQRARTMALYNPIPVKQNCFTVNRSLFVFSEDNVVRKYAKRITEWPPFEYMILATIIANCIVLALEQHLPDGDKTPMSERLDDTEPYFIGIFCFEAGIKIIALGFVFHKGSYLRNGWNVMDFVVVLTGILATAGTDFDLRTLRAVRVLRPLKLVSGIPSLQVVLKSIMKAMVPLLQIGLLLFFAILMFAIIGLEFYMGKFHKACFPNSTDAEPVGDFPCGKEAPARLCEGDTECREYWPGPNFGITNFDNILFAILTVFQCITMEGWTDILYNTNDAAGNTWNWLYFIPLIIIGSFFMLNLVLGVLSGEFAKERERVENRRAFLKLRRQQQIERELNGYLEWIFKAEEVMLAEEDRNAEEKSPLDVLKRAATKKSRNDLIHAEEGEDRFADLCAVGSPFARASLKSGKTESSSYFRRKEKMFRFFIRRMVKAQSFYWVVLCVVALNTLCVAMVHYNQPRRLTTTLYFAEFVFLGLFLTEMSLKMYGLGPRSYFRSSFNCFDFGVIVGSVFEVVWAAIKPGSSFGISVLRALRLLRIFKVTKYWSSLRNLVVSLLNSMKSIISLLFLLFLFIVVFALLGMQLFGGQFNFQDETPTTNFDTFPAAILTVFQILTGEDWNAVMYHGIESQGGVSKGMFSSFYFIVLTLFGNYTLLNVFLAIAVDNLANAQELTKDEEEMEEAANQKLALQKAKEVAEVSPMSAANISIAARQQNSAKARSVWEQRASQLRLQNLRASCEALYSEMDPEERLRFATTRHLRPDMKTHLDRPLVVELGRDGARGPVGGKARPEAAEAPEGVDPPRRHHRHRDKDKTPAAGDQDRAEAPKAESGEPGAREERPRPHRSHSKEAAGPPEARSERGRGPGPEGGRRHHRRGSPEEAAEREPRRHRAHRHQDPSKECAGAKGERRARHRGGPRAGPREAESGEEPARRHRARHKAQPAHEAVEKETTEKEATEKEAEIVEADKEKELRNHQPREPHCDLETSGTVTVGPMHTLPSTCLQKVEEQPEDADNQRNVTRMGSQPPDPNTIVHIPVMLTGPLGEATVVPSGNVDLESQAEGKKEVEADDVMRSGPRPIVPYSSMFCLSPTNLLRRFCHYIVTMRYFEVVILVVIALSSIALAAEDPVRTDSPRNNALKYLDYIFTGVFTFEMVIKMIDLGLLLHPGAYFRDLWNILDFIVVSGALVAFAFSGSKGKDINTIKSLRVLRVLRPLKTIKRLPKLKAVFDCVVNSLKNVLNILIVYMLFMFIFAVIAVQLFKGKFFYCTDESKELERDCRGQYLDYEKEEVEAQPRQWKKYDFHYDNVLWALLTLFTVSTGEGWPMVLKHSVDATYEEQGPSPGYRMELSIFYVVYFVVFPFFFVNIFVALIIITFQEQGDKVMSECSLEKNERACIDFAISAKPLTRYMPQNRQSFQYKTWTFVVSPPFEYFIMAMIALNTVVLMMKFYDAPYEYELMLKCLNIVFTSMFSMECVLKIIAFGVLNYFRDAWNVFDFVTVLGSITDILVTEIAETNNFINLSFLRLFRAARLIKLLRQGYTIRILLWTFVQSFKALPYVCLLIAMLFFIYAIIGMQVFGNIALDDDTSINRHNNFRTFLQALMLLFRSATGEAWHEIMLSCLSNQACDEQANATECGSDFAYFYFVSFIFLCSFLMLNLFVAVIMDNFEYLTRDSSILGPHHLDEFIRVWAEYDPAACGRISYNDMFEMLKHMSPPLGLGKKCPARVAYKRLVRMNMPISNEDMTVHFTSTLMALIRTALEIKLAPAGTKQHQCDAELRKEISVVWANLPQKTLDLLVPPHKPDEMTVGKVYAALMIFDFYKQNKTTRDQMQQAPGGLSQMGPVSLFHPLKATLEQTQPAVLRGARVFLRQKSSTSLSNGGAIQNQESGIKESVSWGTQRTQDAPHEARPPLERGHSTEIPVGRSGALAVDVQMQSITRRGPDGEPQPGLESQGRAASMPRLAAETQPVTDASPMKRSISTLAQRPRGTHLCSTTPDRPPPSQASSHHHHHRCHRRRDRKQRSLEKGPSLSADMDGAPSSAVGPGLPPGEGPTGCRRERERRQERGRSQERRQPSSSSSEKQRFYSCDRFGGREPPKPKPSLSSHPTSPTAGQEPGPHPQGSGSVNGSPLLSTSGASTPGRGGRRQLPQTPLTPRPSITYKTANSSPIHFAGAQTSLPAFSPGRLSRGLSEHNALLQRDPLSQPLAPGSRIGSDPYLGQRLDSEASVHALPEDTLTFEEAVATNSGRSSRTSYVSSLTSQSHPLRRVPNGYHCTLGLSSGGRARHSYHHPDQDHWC
T4 sequence (Q02410 whole entry): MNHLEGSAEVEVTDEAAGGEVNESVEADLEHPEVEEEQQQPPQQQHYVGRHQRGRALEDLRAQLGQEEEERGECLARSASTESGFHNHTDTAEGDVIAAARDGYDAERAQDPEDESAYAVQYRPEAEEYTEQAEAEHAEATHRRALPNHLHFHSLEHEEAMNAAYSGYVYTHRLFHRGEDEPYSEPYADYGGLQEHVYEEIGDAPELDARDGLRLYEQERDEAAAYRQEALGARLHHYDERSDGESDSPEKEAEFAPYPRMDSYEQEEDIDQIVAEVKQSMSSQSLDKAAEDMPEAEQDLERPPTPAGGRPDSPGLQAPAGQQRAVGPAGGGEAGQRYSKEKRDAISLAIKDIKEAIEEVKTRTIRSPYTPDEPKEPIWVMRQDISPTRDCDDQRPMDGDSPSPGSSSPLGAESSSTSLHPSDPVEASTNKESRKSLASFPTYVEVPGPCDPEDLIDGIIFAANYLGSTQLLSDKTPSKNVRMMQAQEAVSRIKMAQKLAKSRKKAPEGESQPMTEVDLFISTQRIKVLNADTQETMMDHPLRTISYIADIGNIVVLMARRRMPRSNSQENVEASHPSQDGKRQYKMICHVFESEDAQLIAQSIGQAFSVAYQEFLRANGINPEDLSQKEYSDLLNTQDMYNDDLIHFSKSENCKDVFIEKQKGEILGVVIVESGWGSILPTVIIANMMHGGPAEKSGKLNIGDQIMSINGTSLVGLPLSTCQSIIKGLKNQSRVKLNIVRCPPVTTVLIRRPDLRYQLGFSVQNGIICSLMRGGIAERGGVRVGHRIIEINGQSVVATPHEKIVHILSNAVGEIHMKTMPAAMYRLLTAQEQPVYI

[17] = molecular target: T4, Voltage-gated N-type calcium channel alpha-1B subunit/Amyloid beta A4 precursor protein-binding family A member 1; assay type: protein assay; remark: listed apart in the source
[18] = molecular target: Induced myeloid leukemia cell differentiation protein Mcl-1 (Homo sapiens, UniProt Q07820); assay type: functional
Induced myeloid leukemia cell differentiation protein Mcl-1, sequence (Q07820 whole entry): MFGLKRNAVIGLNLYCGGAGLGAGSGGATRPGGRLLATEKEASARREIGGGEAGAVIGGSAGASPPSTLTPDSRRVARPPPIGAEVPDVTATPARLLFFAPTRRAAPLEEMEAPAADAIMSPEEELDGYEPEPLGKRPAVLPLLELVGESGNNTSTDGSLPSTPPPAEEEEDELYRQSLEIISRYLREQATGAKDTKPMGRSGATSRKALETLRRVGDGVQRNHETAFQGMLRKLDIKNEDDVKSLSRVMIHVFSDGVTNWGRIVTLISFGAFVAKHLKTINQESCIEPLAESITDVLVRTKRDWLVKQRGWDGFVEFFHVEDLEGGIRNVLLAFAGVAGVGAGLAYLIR

AC50 [8]: 2.73 µM (active)
AC50 [9]: 84.5 µM (active)
AC50 [10]: 3.8 µM (active)
Structure (SMILES): Cc1cc(C)cc(Nc2ccc(C(=O)O)cc2N)c1

IC50 [16]: 6.07 µM (active)
IC50 [17]: 6.21 µM (active)
IC50 [18]: 4.71 µM (active)
Structure (SMILES): Cc1ccc(-c2nc3c(c(=O)[nH]c(=O)n3Cc3ccccc3)n2C)o1

Continued, molecule first:

Structure (SMILES): Nc1c(S(=O)(=O)O)cc(Nc2ccc(Nc3nc(Cl)nc(Nc4ccc(S(=O)(=O)O)cc4)n3)c(S(=O)(=O)O)c2)c2c1C(=O)c1ccccc1C2=O
AC50 [1]: 39.8 µM (inconclusive)
AC50 [2]: 25.1 µM (inconclusive)
AC50 [3]: 39.8 µM (inconclusive)

Structure (SMILES): CCN(CC)c1ccc(/C=C(/C#N)C(=O)NC(C)C)o1
IC50 [4]: 65.8 µM (active)
IC50 [5]: > 55.7 µM (not active)
IC50 [6]: 13.2 µM (not active)
EC50 [7]: > 100 µM (active)

Structure (SMILES): O=C(Nc1nc(-c2cccs2)c(C(=O)C(F)(F)F)s1)c1ccco1
IC50 [11]: > 39.8 µM (not active)
EC50 [12]: > 79.4 µM (inactive)
EC50 [13]: > 79.4 µM (not active)
EC50 [14]: 50 µM (not active)
IC50 [15]: 2.22 µM (active)
